# Assay results: patent US9808003B2, “Herbicidally active 2-(substituted-phenyl)-cyclopentane-1,3-dione compounds and derivatives thereof” (Syngenta Limited, priority 2013, dated 2017)
# Key:
# Test in all cases: Test 1A glasshouse assay, post-emergence herbicidal activity
# Format in all cases: in vivo
# [1] = tested on: Echinochloa crus-galli (ECHCG); settings: Echinochloa crus-galli, 312 h, application rate 250 g/ha, 13 days after application, visual (100%=total damage; 0%=no damage), read-out: Post-emergence Herbicidal Activity (% Phytotoxicity) ECHCG
# Procedure, shortened: (§1)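 Herbicidal effect is scored by eye as % phytotoxicity (0–100%) 13 days after treatment of 8-day-old glasshouse-grown plants. The spray solution contains the technical active ingredient in acetone/water with 0.5% Tween 20.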
# [2] = tested on: Avena fatua (AVEFA); settings: Avena fatua, 312 h, application rate 250 g/ha, 13 days after application, visual (100%=total damage; 0%=no damage), read-out: Post-emergence Herbicidal Activity (% Phytotoxicity) AVEFA
# Procedure, shortened: as §1
# [3] = tested on: Lolium perenne (LOLPE); settings: Lolium perenne, 312 h, application rate 250 g/ha, 13 days after application, visual (100%=total damage; 0%=no damage), read-out: Post-emergence Herbicidal Activity (% Phytotoxicity) LOLPE
# Procedure, shortened: as §1
# [4] = tested on: Alopecurus myosuroides (ALOMY); settings: application rate 250 g/ha, 13 days after application, visual (100%=total damage; 0%=no damage); for pest or weed control at 250 g/ha: Alopecurus myosuroides, 312 h, read-out: Post-emergence Herbicidal Activity (% Phytotoxicity) ALOMY
# Procedure, shortened: as §1
SMILES,pest or weed control at 250 g/ha [1] [%],pest or weed control at 250 g/ha [2] [%],pest or weed control at 250 g/ha [3] [%],pest or weed control at 250 g/ha [4] [%],Post-emergence Herbicidal Activity (% Phytotoxicity) ALOMY [4] [%]
Cc1cc(C)c(C2C(=O)CC(CCNC(=O)c3cc(C#N)ccn3)C2=O)c(C)c1 (stereo not shown) [Compound A148],90,90,90,70,–
Cc1cc(C)c(C2C(=O)CC(CCNC(=O)c3nc(F)ccc3Br)C2=O)c(C)c1 (stereo not shown) [Compound A149],100,100,100,100,–
Cc1cc(C)c(C2C(=O)CC(CCNC(=O)c3ncc(C#N)cc3Cl)C2=O)c(C)c1 (stereo not shown) [Compound A150],80,90,80,70,–
Cc1cc(C)c(C2C(=O)CC(CCNC(=O)c3cccnc3F)C2=O)c(C)c1 (stereo not shown) [Compound A151],90,90,90,90,–
Cc1cc(C)c(C2C(=O)CC(CCNC(=O)c3cccnc3C(F)(F)F)C2=O)c(C)c1 (stereo not shown) [Compound A152],80,70,70,80,–
Cc1cc(-n2cc(Cl)cn2)cc(C)c1C1C(=O)CC(CCNC(=O)c2cc(Br)ccn2)C1=O (stereo not shown) [Compound A154],100,100,100,100,–
Cc1cc(-n2cc(Cl)cn2)cc(C)c1C1C(=O)CC(CCNC(=O)c2ccc(Cl)cn2)C1=O (stereo not shown) [Compound A155],100,100,100,100,–
Cc1ccnc(C(=O)NCCC2CC(=O)C(c3c(C)cc(-n4cc(Cl)cn4)cc3C)C2=O)c1 (stereo not shown) [Compound A156],100,90,90,50,–
Cc1cc(C)c(C2C(=O)CC(CCNC(=O)c3cncc(Cl)c3)C2=O)c(C)c1 (stereo not shown) [Compound A157],90,70,70,70,–
Cc1cc(C)c(C2C(=O)CC(CCNC(=O)c3ccc(F)nc3)C2=O)c(C)c1 (stereo not shown) [Compound A158],70,90,80,80,–
Cc1cc(C)c(C2C(=O)CC(CCNC(=O)c3nn(C)c(Cl)c3C)C2=O)c(C)c1 (stereo not shown) [Compound A160],100,100,90,90,–
Cc1cc(C)c(C2C(=O)CC(CCNC(=O)c3c(Cl)c(C(F)(F)F)nn3C)C2=O)c(C)c1 (stereo not shown) [Compound A161],100,100,100,90,–
Cc1cc(C)c(C2C(=O)CC(CCNC(=O)c3cc(C4CC4)on3)C2=O)c(C)c1 (stereo not shown) [Compound A162],90,90,100,70,–
Cc1cc(C)c(C2C(=O)CC(CCNC(=O)c3nnsc3C)C2=O)c(C)c1 (stereo not shown) [Compound A164],100,100,90,90,–
O=C(NCCC1CC(=O)C(c2c(Cl)cc(-c3ccc(F)cc3)cc2Cl)C1=O)c1cccc(F)n1 (stereo not shown) [Compound A165],100,100,100,90,–
Cc1cc(C)c(C2C(=O)CC(CCNC(=O)c3ccc(F)nc3F)C2=O)c(C)c1 (stereo not shown) [Compound A166],60,90,90,80,–
Cc1cc(C)c(C2C(=O)CC(CCNC(=O)c3ccc(C)nc3Cl)C2=O)c(C)c1 (stereo not shown) [Compound A167],90,30,70,60,–
Cc1cc(C)c(C2C(=O)CC(CCNC(=O)c3cccnc3Br)C2=O)c(C)c1 (stereo not shown) [Compound A168],80,80,70,60,–

SMILES,pest or weed control at 250 g/ha [1] [%],pest or weed control at 250 g/ha [2] [%],pest or weed control at 250 g/ha [3] [%],pest or weed control at 250 g/ha [4] [%],Post-emergence Herbicidal Activity (% Phytotoxicity) ALOMY [4] [%]
"Cc1cc(-n2cc(Cl)nn2)cc(C)c1C1C(=O)CC(CCNC(=O)c2ccccn2)C1=O (stereo not shown) [Compound A170, N-[2-[3-[4-(4-chlorotriazol-1-yl)-2,6-dimethyl-phenyl]-2,4-dioxo-cyclopentyl]ethyl]pyridine-2-carboxamide]",100,100,90,90,90
Cc1cc(-n2ccnn2)cc(C)c1C1C(=O)CC(CCNC(=O)c2ccccn2)C1=O (stereo not shown) [Compound A171],60,10,10,0,–
Cc1cc(C)c(C2C(=O)CC(CCNC(=O)c3sc(C(F)(F)F)nc3C(F)(F)F)C2=O)c(C)c1 (stereo not shown) [Compound A172],100,90,100,90,–
Cc1cc(C)c(C2C(=O)CC(CCNC(=O)c3cc(C(F)(F)F)nn3C)C2=O)c(C)c1 (stereo not shown) [Compound A173],100,100,100,100,–
COCc1nc(C2CC2)c(C(=O)NCCC2CC(=O)C(c3c(C)cc(C)cc3C)C2=O)s1 (stereo not shown) [Compound A174],90,100,100,90,–
Cc1cc(C)c(C2C(=O)CC(CCNC(=O)c3nn(C)c(C)c3Cl)C2=O)c(C)c1 (stereo not shown) [Compound A177],100,90,90,100,–
Cc1cc(C)c(C2C(=O)CC(CCNC(=O)c3oc(C)nc3C)C2=O)c(C)c1 (stereo not shown) [Compound A178],80,90,100,70,–
Cc1cc(C)c(C2C(=O)CC(CCNC(=O)c3c(C)noc3C)C2=O)c(C)c1 (stereo not shown) [Compound A179],80,100,70,70,–
Cc1cc(C)c(C2C(=O)CC(CCNC(=O)c3snnc3C)C2=O)c(C)c1 (stereo not shown) [Compound A180],90,80,80,70,–
Cc1cc(C)c(C2C(=O)CC(CCNC(=O)c3ocnc3C)C2=O)c(C)c1 (stereo not shown) [Compound A181],80,100,90,80,–
Cc1cc(C)c(C2C(=O)CC(CCNC(=O)c3nc(C)sc3C)C2=O)c(C)c1 (stereo not shown) [Compound A182],90,90,80,80,–
Cc1cc(C)c(C2C(=O)CC(CCNC(=O)c3sc(C)nc3C(F)F)C2=O)c(C)c1 (stereo not shown) [Compound A183],90,60,90,60,–
Cc1cc(-c2ccccc2Cl)cc(C)c1C1C(=O)CC(CCNC(=O)c2ccccn2)C1=O (stereo not shown) [Compound A184],90,20,60,10,–
Cc1cc(C)c(C2C(=O)CC(CCNC(=O)c3ncc(Br)cc3F)C2=O)c(C)c1 (stereo not shown) [Compound A185],100,100,100,90,–
Cc1cc(C)c(C2C(=O)CC(CCNC(=O)c3ccc(F)c(Br)n3)C2=O)c(C)c1 (stereo not shown) [Compound A186],100,90,100,100,–
Cc1cc(C)c(C2C(=O)CC(CCNC(=O)c3ncc(F)cc3Br)C2=O)c(C)c1 (stereo not shown) [Compound A187],100,90,100,90,–
Cc1cc(C)c(C2C(=O)CC(CCNC(=O)c3ccc(OC(F)F)cn3)C2=O)c(C)c1 (stereo not shown) [Compound A188],100,100,100,100,–
Cc1cc(C)c(C2C(=O)CC(CCNC(=O)c3ncc(Cl)cc3F)C2=O)c(C)c1 (stereo not shown) [Compound A189],100,100,100,100,–
